Assay results taken from patent US20250179083A1, “TRICYCLIC TRIAZOLO COMPOUNDS AS DGK INHIBITORS” (Incyte Corporation, priority 2023, published 2025).

Tests used:
DGKα = biological target: T1, DGKα (Homo sapiens, UniProt P23743); test: In vitro DGKα inhibition assay (ADP-Glo); format: biochemical; conditions: His-tagged human recombinant DGKα 0.1 nM, 50 μM ATP, 20 μM DLG, 90 minute incubation
T1 construct: His; purchased Signal Chem D21-10BH
Method in brief: (§1)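 His-tagged human DGKα (0.1 nM, 50 μM ATP) or DGKζ (0.4 nM, 30 μM ATP), each with 20 μM DLG lipid substrate, in Tris pH 7.5 buffer with Mg2+, Ca2+, CHAPS.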

DGKζ = biological target: T2, DGKζ (Homo sapiens, UniProt Q13574); test: In vitro DGKζ inhibition assay (ADP-Glo); format: biochemical; conditions: His-tagged human recombinant DGKζ 0.4 nM, 30 μM ATP, 20 μM DLG, 90 minute incubation
T2 construct: His; purchased Signal Chem D30-10H
T2 sequence (Q13574 whole entry): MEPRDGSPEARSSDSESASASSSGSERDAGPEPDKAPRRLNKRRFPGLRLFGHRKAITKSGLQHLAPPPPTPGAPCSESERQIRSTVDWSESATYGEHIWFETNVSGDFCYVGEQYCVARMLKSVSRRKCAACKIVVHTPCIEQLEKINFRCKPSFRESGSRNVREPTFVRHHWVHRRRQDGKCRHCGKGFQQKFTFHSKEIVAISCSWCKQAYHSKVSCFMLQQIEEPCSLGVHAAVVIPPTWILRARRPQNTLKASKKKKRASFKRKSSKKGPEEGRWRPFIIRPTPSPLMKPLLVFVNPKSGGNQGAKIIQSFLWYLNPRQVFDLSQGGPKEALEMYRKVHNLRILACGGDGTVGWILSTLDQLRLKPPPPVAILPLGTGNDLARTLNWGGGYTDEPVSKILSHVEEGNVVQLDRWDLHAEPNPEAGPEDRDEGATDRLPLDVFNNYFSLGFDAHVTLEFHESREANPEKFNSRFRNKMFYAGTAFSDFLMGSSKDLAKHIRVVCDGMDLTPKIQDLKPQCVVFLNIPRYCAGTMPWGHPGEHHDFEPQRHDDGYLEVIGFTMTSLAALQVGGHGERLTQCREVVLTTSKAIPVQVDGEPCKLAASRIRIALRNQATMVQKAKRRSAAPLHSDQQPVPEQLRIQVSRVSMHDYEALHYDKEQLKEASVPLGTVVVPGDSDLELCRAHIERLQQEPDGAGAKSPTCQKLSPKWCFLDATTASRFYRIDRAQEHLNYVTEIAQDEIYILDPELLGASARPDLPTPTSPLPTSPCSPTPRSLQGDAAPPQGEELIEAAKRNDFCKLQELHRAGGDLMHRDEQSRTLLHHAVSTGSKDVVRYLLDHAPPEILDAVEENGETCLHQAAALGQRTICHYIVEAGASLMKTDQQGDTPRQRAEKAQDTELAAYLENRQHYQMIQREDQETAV
Method in brief: as §1

T1 sequence (P23743 whole entry): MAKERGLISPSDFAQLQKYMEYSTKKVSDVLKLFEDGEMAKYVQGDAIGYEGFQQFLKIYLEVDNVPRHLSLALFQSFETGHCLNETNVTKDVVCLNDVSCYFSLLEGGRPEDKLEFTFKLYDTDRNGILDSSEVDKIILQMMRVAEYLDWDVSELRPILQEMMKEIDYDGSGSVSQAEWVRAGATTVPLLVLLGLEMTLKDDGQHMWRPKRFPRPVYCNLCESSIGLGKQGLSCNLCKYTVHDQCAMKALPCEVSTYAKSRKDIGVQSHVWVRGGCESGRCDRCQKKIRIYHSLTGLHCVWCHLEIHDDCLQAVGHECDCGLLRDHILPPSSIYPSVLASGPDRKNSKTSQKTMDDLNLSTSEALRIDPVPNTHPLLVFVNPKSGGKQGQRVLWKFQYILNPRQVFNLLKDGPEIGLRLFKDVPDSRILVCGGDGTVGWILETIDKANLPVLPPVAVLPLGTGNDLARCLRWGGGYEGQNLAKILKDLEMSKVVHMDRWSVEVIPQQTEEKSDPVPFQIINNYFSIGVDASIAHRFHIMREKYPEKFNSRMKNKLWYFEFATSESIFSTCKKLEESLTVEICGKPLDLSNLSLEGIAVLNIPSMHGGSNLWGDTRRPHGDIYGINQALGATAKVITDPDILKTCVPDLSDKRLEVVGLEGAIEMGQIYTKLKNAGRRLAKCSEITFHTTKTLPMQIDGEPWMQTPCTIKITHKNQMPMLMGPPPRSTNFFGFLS

| IC50 (DGKα) | IC50 (DGKζ) | Compound |
| --- | --- | --- |
| < 20 nM | < 20 nM | Cc1nc2c(N3C[C@@H](C)N(Cc4ccc(C(F)(F)F)cc4F)C[C@@H]3C)cc3nncn3c2n1C[C@@H]1CCCO1 [Example 69, 4-((2S,5R)-4-(2-Fluoro-4-(trifluoromethyl)benzyl)-2,5-dimethylpiperazin-1-yl)-2-methyl-1-(((S)-tetrahydrofuran-2-yl)methyl)-1H-imidazo[4,5-e][1,2,4]triazolo[4,3-a]pyridine] |
| < 20 nM | < 20 nM | Cc1nc2c(N3C[C@@H](C)N(Cc4ccc(Cl)cc4)C[C@@H]3C)nc3nncn3c2n1C[C@@H]1CCCO1 [Example 70, 4-((2S,5R)-4-(4-Chlorobenzyl)-2,5-dimethylpiperazin-1-yl)-2-methyl-1-(((S)-tetrahydrofuran-2-yl)methyl)-1H-[1,2,4]triazolo[3,4-b]purine] |
| < 20 nM | < 20 nM | Cc1nc2c(N3C[C@@H](C)N(Cc4ccc(Cl)cc4F)C[C@@H]3C)nc3nncn3c2n1C[C@@H]1CCCO1 [Example 71, 4-((2S,5R)-4-(4-Chloro-2-fluorobenzyl)-2,5-dimethylpiperazin-1-yl)-2-methyl-1-(((S)-tetrahydrofuran-2-yl)methyl)-1H-[1,2,4]triazolo[3,4-b]purine] |
| < 20 nM | < 20 nM | Cc1nc2c(N3C[C@@H](C)N(Cc4ccc(Cl)c(Cl)c4)C[C@@H]3C)nc3nncn3c2n1C[C@@H]1CCCO1 [Example 72, 4-((2S,5R)-4-(3,4-Dichlorobenzyl)-2,5-dimethylpiperazin-1-yl)-2-methyl-1-(((S)-tetrahydrofuran-2-yl)methyl)-1H-[1,2,4]triazolo[3,4-b]purine] |
| < 20 nM | < 20 nM | Cc1nc2c(N3C[C@@H](C)N(Cc4c(F)cc(Cl)cc4F)C[C@@H]3C)nc3nncn3c2n1C[C@@H]1CCCO1 [Example 73, 4-((2S,5R)-4-(4-Chloro-2,6-difluorobenzyl)-2,5-dimethylpiperazin-1-yl)-2-methyl-1-(((S)-tetrahydrofuran-2-yl)methyl)-1H-[1,2,4]triazolo[3,4-b]purine] |
| < 20 nM | < 20 nM | Cc1nc2c(N3C[C@@H](C)N(Cc4cc(F)c(Cl)c(C(F)(F)F)c4)C[C@@H]3C)nc3nncn3c2n1C[C@@H]1CCCO1 [Example 74, 4-((2S,5R)-4-(4-Chloro-3-fluoro-5-(trifluoromethyl)benzyl)-2,5-dimethylpiperazin-1-y1)-2-methyl-1-(((S)-tetrahydrofuran-2-yl)methyl)-1H-[1,2,4]triazolo[3,4-b]purine] |
| < 20 nM | < 20 nM | Cc1nc2c(N3C[C@@H](C)N(Cc4ccc(C(F)(F)F)c(F)c4)C[C@@H]3C)nc3nncn3c2n1C[C@@H]1CCCO1 [Example 75, 4-((2S,5R)-4-(3-Fluoro-4-(trifluoromethyl)benzyl)-2,5-dimethylpiperazin-1-yl)-2-methyl-1-(((S)-tetrahydrofuran-2-yl)methyl)-1H-[1,2,4]triazolo[3,4-b]purine] |
| < 20 nM | < 20 nM | Cc1nc2c(N3C[C@@H](C)N(Cc4ccc(Cl)c(F)c4)C[C@@H]3C)nc3nncn3c2n1C[C@@H]1CCCO1 [Example 76, 4-((2S,5R)-4-(4-Chloro-3-fluorobenzyl)-2,5-dimethylpiperazin-1-yl)-2-methyl-1-(((S)-tetrahydrofuran-2-yl)methyl)-1H-[1,2,4]triazolo[3,4-b]purine] |
| < 20 nM | < 20 nM | C[C@@H]1CN(c2nc3nncn3c3c2ncn3C[C@@H]2CCCO2)[C@@H](C)CN1Cc1ccc(Cl)c(F)c1 [Example 77, 4-((2S,5R)-4-(4-Chloro-3-fluorobenzyl)-2,5-dimethylpiperazin-1-yl)-1-(((S)-tetrahydrofuran-2-yl)methyl)-1H-[1,2,4]triazolo[3,4-b]purine] |
| < 20 nM | < 20 nM | CC[C@@H]1CN(c2nc3nncn3c3c2nc(C)n3C[C@@H]2CCCO2)[C@@H](C)CN1C(c1ccc(Cl)cc1)C1CC(F)(F)C1 (stereo partly drawn) [Example 78, 4-((2S,5R)-4-((4-Chlorophenyl)(3,3-difluorocyclobutyl)methyl)-5-ethyl-2-methylpiperazin-1-yl)-2-methyl-1-(((S)-tetrahydrofuran-2-yl)methyl)-1H-[1,2,4]triazolo[3,4-b]purine] |
| < 20 nM | < 20 nM | Cc1nc2c(N3C[C@@H](C)N(C(c4cc(F)c(Cl)cc4F)C4CC(F)(F)C4)C[C@@H]3C)nc3nncn3c2n1C[C@@H]1CCCO1 (stereo partly drawn) [Example 79, 4-((2S,5R)-4-((4-Chloro-2,5-difluorophenyl)(3,3-difluorocyclobutyl)methyl)-2,5-dimethylpiperazin-1-yl)-2-methyl-1-(((S)-tetrahydrofuran-2-yl)methyl)-1H-[1,2,4]triazolo[3,4-b]purine] |
| < 20 nM | < 20 nM | Cc1nc2c(N3C[C@@H](C)N(C(c4ccc(Cl)c(F)c4F)C4CC(F)(F)C4)C[C@@H]3C)nc3nncn3c2n1C[C@@H]1CCCO1 (stereo partly drawn) [Example 80, 4-((2S,5R)-4-((4-Chloro-2,3-difluorophenyl)(3,3-difluorocyclobutyl)methyl)-2,5-dimethylpiperazin-1-yl)-2-methyl-1-(((S)-tetrahydrofuran-2-yl)methyl)-1H-[1,2,4]triazolo[3,4-b]purine] |
| 20 to 200 nM | < 20 nM | CC(C)[C@@H](c1ccc2cc(C(F)(F)F)ccc2n1)N1C[C@H](C)N(c2nc3nncn3c3c2ncn3C[C@@H]2CCCO2)C[C@H]1C [Example 83, 4-((2S,5R)-2,5-Dimethyl-4-((S)-2-methyl-1-(6-(trifluoromethyl)quinolin-2-yl)propyl)piperazin-1-yl)-1-(((S)-tetrahydrofuran-2-yl)methyl)-1H-[1,2,4]triazolo[3,4-b]purine] |
| < 20 nM | < 20 nM | CC(C)[C@H](c1ccc2cc(C(F)(F)F)ccc2n1)N1C[C@H](C)N(c2nc3nncn3c3c2ncn3C[C@@H]2CCCO2)C[C@H]1C [Example 84, 4-((2S,5R)-2,5-dimethyl-4-((R)-2-methyl-1-(6-(trifluoromethyl)quinolin-2-yl)propyl)piperazin-1-yl)-1-(((S)-tetrahydrofuran-2-yl)methyl)-1H-[1,2,4]triazolo[3,4-b]purine] |
| < 20 nM | < 20 nM | CC[C@@H](c1ccc(Cl)cc1)N1C[C@H](C)N(c2nc3nncn3c3c2nc(C)n3C[C@@H]2CCCO2)C[C@H]1C [Example 85, 4-((2S,5R)-4-((S)-1-(4-Chlorophenyl)propyl)-2,5-dimethylpiperazin-1-yl)-2-methyl-1-(((S)-tetrahydrofuran-2-yl)methyl)-1H-[1,2,4]triazolo[3,4-b]purine] |
| < 20 nM | < 20 nM | CC[C@H](c1ccc(Cl)cc1)N1C[C@H](C)N(c2nc3nncn3c3c2nc(C)n3C[C@@H]2CCCO2)C[C@H]1C [Example 86, 4-((2S,5R)-4-((R)-1-(4-chlorophenyl)propyl)-2,5-dimethylpiperazin-1-yl)-2-methyl-1-(((S)-tetrahydrofuran-2-yl)methyl)-1H-[1,2,4]triazolo[3,4-b]purine] |
| 20 to 200 nM | < 20 nM | CC(c1ccc(Cl)c(F)c1)N1C[C@H](C)N(c2nc3nncn3c3c2ncn3C[C@@H]2CCCO2)C[C@H]1C (stereo partly drawn) [Example 88, 4-((2S,5R)-4-(1-(4-Chloro-3-fluorophenyl)ethyl)-2,5-dimethylpiperazin-1-yl)-1-(((S)-tetrahydrofuran-2-yl)methyl)-1H-[1,2,4]triazolo[3,4-b]purine] |
| < 20 nM | < 20 nM | CC[C@@H](c1ccc(C(F)(F)F)cc1)N1C[C@H](C)N(c2nc3nncn3c3c2nc(C)n3C[C@@H]2CCCO2)C[C@H]1C [Example 89, 4-((2S,5R)-2,5-Dimethyl-4-((S)-1-(4-(trifluoromethyl)phenyl)propyl)piperazin-1-yl)-2-methyl-1-(((S)-tetrahydrofuran-2-yl)methyl)-1H-[1,2,4]triazolo[3,4-b]purine] |
| < 20 nM | < 20 nM | CC[C@H](c1ccc(C(F)(F)F)cc1)N1C[C@H](C)N(c2nc3nncn3c3c2nc(C)n3C[C@@H]2CCCO2)C[C@H]1C [Example 90, 4-((2S,5R)-2,5-dimethyl-4-((R)-1-(4-(trifluoromethyl)phenyl)propyl)piperazin-1-yl)-2-methyl-1-(((S)-tetrahydrofuran-2-yl)methyl)-1H-[1,2,4]triazolo[3,4-b]purine] |

| Compound | IC50 (DGKα) | IC50 (DGKζ) |
| --- | --- | --- |
| Cc1nc2c(N3C[C@H]4CC[C@@H](C3)N4C(c3ccc(C(F)(F)F)cc3)C3CC(F)(F)C3)nc3nncn3c2n1C[C@@H]1CCCO1 (stereo partly drawn) [Example 81, 4-((1R,5S)-8-((3,3-Difluorocyclobutyl)(4-(trifluoromethyl)phenyl)methyl)-3,8-diazabicyclo[3.2.1]octan-3-yl)-2-methyl-1-(((S)-tetrahydrofuran-2-yl)methyl)-1H-[1,2,4]triazolo[3,4-b]purine] | < 20 nM | < 20 nM |
| Cc1nc2c(N3C[C@H]4CC[C@@H](C3)N4C(c3ccc(F)cc3)c3ccc(F)cc3)nc3nncn3c2n1C[C@@H]1CCCO1 [Example 82, 4-((1R,5S)-8-(Bis(4-fluorophenyl)methyl)-3,8-diazabicyclo[3.2.1]octan-3-yl)-2-methyl-1-(((S)-tetrahydrofuran-2-yl)methyl)-1H-[1,2,4]triazolo[3,4-b]purine] | < 20 nM | < 20 nM |
